From patent publication US8716334B2, “Substituted cyclohexylidene-ethylidene-octahydro-indene compounds” (Ben Gurion University of the Negev Research and Development …, priority 2008, dated 2014)
Entries after “also recorded” stand apart in the source; their conditions may differ.

Key:
[1] = Calcium metabolic model in rats; format: in vivo; conditions: 20 ng daily for six days
Experimental: The clinical use of vitamin D3 as an anti-cancer agent is limited by its toxicity and concerns the possible development of hypercalcemia or hypercalciuria in treated patients. The calcium levels in rat blood, and the total daily secretion of calcium in rat urine were evaluated following daily treatments of 20 ng of vitamin D3, calcipotriene or BGP-15 for six days as shown in FIG. 15.

LNCaP cells = test: MTT viability assay in LNCaP cells; format: cell-based, human; conditions: 1 or 5 μmol/L, 3 to 6 days
Experimental: (§1) LNCaP and MCF-7 cells were plated in 96-well plates and treated with 1 or 5 μmol/L test substances for 3 to 6 days. Cell viability following treatments was assayed by MTT. All experiments were conducted at least twice, and weighted results from all experiments are shown. *p<0.005 of BGP-15 relative to vitamin D3, **p<0.001 of BGP-15 relative to vitamin D3 and to calcipotriene.
(§2) LNCaP and MCF-7 cell-lines are widely used models for human prostate and mammary carcinomas respectively. Following BGP-15 purification and structural elucidation (FIG. 12), the effect of calcipotriene and BGP-15 on the viability of both LNCaP and MCF-7 cells was tested in-vitro by using the MTT assay, and was compared with the effect obtained by vitamin D3 (calcitriol).

MCF-7 cells = test: MTT viability assay in MCF-7 cells; format: cell-based, human; conditions: MCF-7, 1 or 5 μmol/L, 3 to 6 days
Experimental: as §1, §2

[2] = tested on: HT-29 human colon cancer cells; test: In vivo anti-tumor activity, HT-29 tumors in nude mice; conditions: for tumor size relative to controls at 30 days after cancer cell injection / size of tumors versus vehicle-treated control mice: HT-29 sc in nude mice; for tumor size relative to controls at 30 days after cancer cell injection: 2 μg/kg ip; for size of tumors versus vehicle-treated control mice: 2 μg/kg ip from day 20; for weight loss or observable adverse effects: nude mice, 2 μg/kg ip three times per week
Experimental: In vivo anti-tumor activity of the novel derivatives of calcipotriol: Experiments were carried out to determine the ability of BGP-13 and BGP-15 to inhibit the growth of human tumor cells in vivo. […] Nude mice received a subcutaneous (sc) injection of HT-29 human colon cancer cells. At various time intervals after the administration of the tumor cells, the mice received three times per week intraperitoneal injections of BGP-13 and BGP-15 at a dose of 2 μg/kg. […] In one experiment 12 nude mice, which received a s.c. injection of HT-29, were divided into three groups. Starting from day 20 after tumor injection, 2 groups of the mice received ip injections of BGP-13 and BGP-15 respectively. […] At 30 days after cancer cell injection, the tumors in the treated group were half the size of the tumors in controls (FIG. 14).

HT-29, MCF-7, and LNCaP = test: Activity against cell lines of human origin; format: cell-based
p21^WAF1 = test: Western blot of p21 expression in LNCaP cells; format: cell-based, human; conditions: 100 nM, 48 hours
Experimental: Cells were incubated for 5 minutes at room temperature in 100 μl of 1% SDS lysis buffer. Samples were then collected into eppendorfs, incubated for 10 minutes at 100° C., and centrifuged at 14,000 rpm for 10 minutes. Supernatants were transferred into new tubes and pellets were discarded. Determination of protein concentration was conducted using the Bradford assay. […] protein of each sample was loaded on PVDF membranes and incubated with anti p21 antibody (Santa Cruz Biotechnology, Santa Cruz, Calif., U.S.A).

[3] = tested on: MCF-7 human breast carcinoma cell line; test: Neutral-Red viability assay in MCF-7 cells; format: cell-based; conditions: MCF-7, 30 μM, 24 hours
Experimental: (§3) Cell culture: The following human cell lines (1) LNCaP—human prostate carcinoma cell line (2) MCF-7—human breast carcinoma cell line, and (3) GA—human melanoma cell line (3) HaCaT—immortalizes normal human skin keratinocytes were tested. Cells were inoculated in RPMI 1640 (LNCaP and GA) or Dulbecco modified eagle medium-DMEM (MCF-7 and HaCaT) supplemented with 10% heat inactivated fetal calf serum, 200 μM L-glutamine, 10 units/ml Penicillin and 10 μgr/ml Streptomycin. The cells were kept at 37° C. in a 5% CO2 humidified atmosphere.
(§4) The direct effect of the compound compared to free calcipotriene and vitamin D3 in the viability and proliferation level of cultured cells was assessed in vitro using cultured Cells. The cells were inoculated in 0.2 ml fresh medium. After 24 at 37° C. in a 5% CO2 humidified atmosphere, the medium was replaced with a fresh medium containing 0.5% ethanol and 30, 5, 1 and 0.1 μM test substance. Medium containing 0.5% ethanol without test compounds was used for the control cells. Cell growth and proliferation was assayed by Neutral-Red assay (evaluated by measuring the absorbance of the dye following 3 hours incubation, in 540 nm) at the stated times.

[4] = Stability in the external medium; format: in vitro ADME; conditions: relative to CPT
Experimental: (§5) External and internal fractions of HaCaT cultures (0.5×10^6, 1×10^6, 3×10^6, 5×10^6 and 9.7×10^6 cells) were analyzed by HPLC.

[5] = tested on: HaCaT immortalizes normal human skin keratinocytes; test: Neutral-Red viability assay in HaCaT cells; format: cell-based
Experimental: as §3, §4

[6] = tested on: LNCaP human prostate carcinoma cell line; test: Neutral-Red viability assay in LNCaP cells; format: cell-based; conditions: for antiproliferative effect (viability assay): 30 μM, 24 hours
Experimental: as §3, §4

HaCaT cells = test: MTT and NR viability assays for HaCaT cells (FIG. 7); format: cell-based, human; set-up: dose or concentration left out as unconfirmed; conditions: (for 24 hours)
Experimental: FIG. 7 is a bar graph showing the results of a MTT and NR viability assays for HaCaT cells treated with 30 µM (for 24 hours) of 1α,25(OH)2 vitamin D3, calcipotriol (CPT), and BGP-13.
Viability of HaCaT cells in the presence of three vitamin D3 derivatives, 1α,25(OH)2 D3 (calcitriol), and BGP-013 was studied by MTT assay.

HaCaT keratinocytes = test: Cellular entry into HaCaT keratinocytes by HPLC; format: in vitro ADME, human; conditions: for entry into keratinocytes: HaCaT cultures, HPLC of external and internal fractions; for cell internalization normalized per cell: 0.5×10^6 to 9.7×10^6 cells, data not shown
Experimental: as §5

[7] = CPT metabolite in rat skin
Excerpt: LC/MS analysis has confirmed that the metabolite peak appeared at BGP-13's retention time was indeed this derivative (FIG. 10). […] The formation of reduced levels of this metabolite is probably due to the poor penetration of calcipotriol into the skin. Therefore, intracellular BGP-13 is an […] product of the internalized CPT with reactive oxygen species (ROS) such as singlet oxygen. This metabolic pathway of calcipotriol may have a role in scavenging ROS and reducing inflammatory processes in cells and tissue.

[8] = Reaction with singlet oxygen (endoperoxide-naphthalene trapper); conditions: room temperature, product detected by TLC, LC-MS
Excerpt: The trapper, endoperoxide-naphthalene, was converted into naphthalene and released exclusively singlet oxygen at room temperature (FIG. 11). Combining calcipotriol with the endoperoxide has created a new product that was first detected by TLC as BGP-13. LC-MS has confirmed that this indeed is the substance.

With `C=C1/C(=C\C=C2/CCC[C@@]3(C)C2CC[C@@H]3C(C)/C=C/C(Cl)C2CC2)C[C@@H](O)C[C@@H]1O` (some centres unmarked) [Calci-Cl] the “hypercalcemia (calcium levels in rat blood)” value [1] was “do not generate hypercalcemia”, the “hypercalciuria (total daily secretion of calcium in rat urine)” value [1] was “do not generate hypercalcemia or hypercalciuria” and the “cell survival (MTT)” value (LNCaP cells) was “reduce prostate and breast cancer cells survival”. The “cell survival (MTT)” value (MCF-7 cells) was “reduce prostate and breast cancer cells survival”, the “tumor size relative to controls at 30 days after cancer cell injection” value [2] was “half the size” and the “size of tumors versus vehicle-treated control mice” value [2] was “significantly smaller”. The “weight loss or observable adverse effects” value [2] was “did not cause either weight loss or any observable adverse effects” and the “activity against cell lines of human origin” value (HT-29, MCF-7, and LNCaP) was “active at least against three cell lines”.
For `C=C1/C(=C\C=C2/CCC[C@@]3(C)C2CC[C@@H]3C(C)C2C=C(C3CC3)OO2)C[C@@H](O)C[C@@H]1O` (some centres unmarked) [Compound II, Calci-dioxole], the p21 expression (p21^WAF1) was “not mediated through increased p21 expression”, the “antiproliferative effect (viability assay)” value (“antiproliferative effect” below) [3] was “much more potent antiproliferative effect on the LNCaP and MCF-7 cancer cells as compared to HaCaT cells; also recorded: much more potent antiproliferative effect on LNCaP and MCF-7 cancer cells than on HaCaT cells” and the “stability in the medium” value [4] was “significantly less stable in the medium relative to CPT”. For the same compound, the “selectivity for carcinogenic versus non-carcinogenic cells” value ([5]; HaCaT compared with cancer cell lines) was “more selective for carcinogenic cells; also recorded: might have a less potent effect on non-carcinogenic cells than on carcinogenic cells”, the “potency of treatment (viability assay)” value ([5]; HaCaT, 5 μM and 1 μM, 6 days) was “less potent than treatments with calcitriol and calcipotriol” and the “mortality (viability assay)” value ([6]; 5 μM, 6 days) was “higher mortality than cells exposed to calcipotriol alone”. For the same compound, the “antiproliferative effect” value [6] was “much more potent antiproliferative effect on the LNCaP and MCF-7 cancer cells as compared to HaCaT cells; also recorded: significantly high efficacy; also recorded: much more potent antiproliferative effect on LNCaP and MCF-7 cancer cells than on HaCaT cells; also recorded: much more potent antiproliferative effect on LNCaP cells than calcipotriol alone”, the “antiproliferative effect” value ([6]; listed as BGP-13) was “much more potent antiproliferative effect on LNCaP cells than calcipotriol alone” and the “inhibition of proliferation of keratinocytes (MTT assay)” value (HaCaT cells) was “inhibited the proliferation of the keratinocytes at the same rate and extent as CPT or calcitriol”. For the same compound, the “tumor size relative to controls at 30 days after cancer cell injection” value [2] was “half the size”, the “size of tumors versus vehicle-treated control mice” value [2] was “significantly smaller” and the “weight loss or observable adverse effects” value [2] was “did not cause either weight loss or any observable adverse effects”. The “activity against cell lines of human origin” value (HT-29, MCF-7, and LNCaP) was “active at least against three cell lines”, the “intracellular permeation as fraction of the total quantity momentarily present in the cell culture” value (HaCaT keratinocytes; HaCaT) was “enhanced intracellular permeation increased its stability by preventing degradation in the medium” and the entry into keratinocytes (HaCaT keratinocytes) was “approximately 60 % of the applied substance”. The “cell internalization normalized per cell” value (HaCaT keratinocytes; HaCaT) was “constant even at a high cell density”.
With `C=C1/C(=C\C=C2/CCC[C@]3(C)[C@@H]([C@H](C)/C=C/[C@@H](O)C4CC4)CC[C@@H]23)C[C@@H](O)C[C@@H]1O` [calcipotriol, reference compound] the “hypercalcemia (calcium levels in rat blood)” value [1] was “do not generate hypercalcemia”, the “hypercalciuria (total daily secretion of calcium in rat urine)” value [1] was “do not generate hypercalcemia or hypercalciuria” and the p21 expression (p21^WAF1) was “increased p21 expression”. For the same compound, the “metabolite BGP-13 in rat skin” value [7] was “found at low levels”, the “cell survival (MTT)” value (LNCaP cells) was “reduce prostate and breast cancer cells survival” and the “action towards singlet oxygen” value [8] was “antioxidant/quencher of singlet oxygen”. For the same compound, the “cell survival (MTT)” value (MCF-7 cells) was “reduce prostate and breast cancer cells survival”, the “antiproliferative effect” value [6] was “less efficacious; also recorded: relatively lower anticancer effect” and the entry into keratinocytes (HaCaT keratinocytes) was “comparable”. The “cell internalization normalized per cell” value (HaCaT keratinocytes; HaCaT) was “constant even at a high cell density”.
For `C=C1/C(=C\C=C2/CCC[C@]3(C)[C@@H]([C@H](C)CCCC(C)(C)O)CC[C@@H]23)C[C@@H](O)C[C@@H]1O` [calcitriol], the p21 expression (p21^WAF1) was “increased p21 expression”, the “cell survival (MTT)” value (LNCaP cells) was “reduce prostate and breast cancer cells survival” and the “cell survival (MTT)” value (MCF-7 cells) was “reduce prostate and breast cancer cells survival”. The “antiproliferative effect” value [6] was “less efficacious; also recorded: relatively lower anticancer effect”.
